Measurements published in patent US6617439B1, “C8-substituted purine nucleotide analogs” (Bar-Ilan University, priority 2000, dated 2003).
“Also recorded” adds a separate entry of the source.

What was measured:
[1] = tested on: rat astrocytes; conditions: cited from earlier work
[2] = tested on: P2Y1 receptor; conditions: cited from earlier work
[3] = tested on: P2Y-purinoceptor; experiment: P2Y-receptor assay, intact mesenteric bed, ATP-induced vasodilation; design: species or system guinea pig; conditions: 7 μM infusion, ATP 0.1-10000 pmol
Experimental: (§1) Surgical Procedures. Dunkin-Hartley guinea pigs (300-350 g) of either sex were sacrificed by cerival dislocation according to the Canadian Council on Aminal Care. The guinea pig mesentery was prepared as described by Berthiaume et al (63). […] To isolate the mesenteric bed from the intestine, the mesentery was perfused (2 ml/min, for 5 min) via the mesenteric artery with a Krebs solution containing heparin (100 U/ml). The mesentery was then separated by cutting close to the intestine. A resting period of 60 min was then allowed during which the guinea pig mesenteric bed was perfused (2 ml/min) with a warmed (37° C.) and gassed Krebs solution (95% O2 and 5% CO2) containing indomethacin (5 μM), as described earlier. In all the assays, perfusion pressure was increased to obtain a flow rate of 6 ml min^−1. Response of mesenteric bed, precontracted with noradrenaline (200 μM) in 0.9% saline solution, to the different drugs, was measured with a pressure transducer (Statham, model P-23AC) and recorded on a Grass physiograph (model 79D).
P2Y-receptor assays. Intact mesenteric bed vessels were precontracted with noradrenaline (200 μM). […] A resting period between each ATP injection was allowed to return to baseline, as described above. Blood vessel reactivity was assessed by a bolus injection of 3 nmol of NaNP. Response of the endothelium layer was confirmed by injection of NK-1 (100 pmol).

[4] = tested on: P2X-purinoceptor; experiment: P2X-receptor assay, endothelium-denuded mesenteric bed; design: species or system guinea pig; conditions: for P2X-R effect: variation of perfusion pressure: bolus 0.1-1000 pmol, denuded mesenteric bed precontracted with noradrenaline
Experimental: as §1
P2X-receptor assays. Guinea pig mesenteric bed was denuded from its endothelium layer by using 20 mM of CHAPS in PBS (63). Briefly, the CHAPS solution was infused for 45 sec, followed by a resting period of 30 min. Finally a second 45 sec infusion of 20 mM CHAPS was carried out. Blood vessels were then precontracted as earlier described. The efficiency of the endothelium removal technique was assessed by an intra-arterial bolus injection of 100 pmol of NK-1 in PBS. Reactivity of the media layer was confirmed by bolus injection of 3 nmol of NaNP (sodium nitroprussiate) in PBS. […] Variation of perfusion pressure were measured. Between each injection of 8-BuS-ATP a resting period was allowed to allow the return of pressure to baseline (i.e. precontracted pressure).

[5] = target: T1, NTPDase (Bos taurus, UniProt O18956); experiment: Resistance to hydrolysis by NTPDase (malachite green phosphate release); assay type: biochemical, bovine; design: To reduce potential artifacts resulting from the solubilisation of NTPDase by detergents, a particulate fraction (prepared as described above) was used; from tissue; host or cells: bovine spleen particulate fraction; conditions: 100 μM analog, 37° C., 7 min, 1.9 μg protein
T1 sequence (O18956 1-513): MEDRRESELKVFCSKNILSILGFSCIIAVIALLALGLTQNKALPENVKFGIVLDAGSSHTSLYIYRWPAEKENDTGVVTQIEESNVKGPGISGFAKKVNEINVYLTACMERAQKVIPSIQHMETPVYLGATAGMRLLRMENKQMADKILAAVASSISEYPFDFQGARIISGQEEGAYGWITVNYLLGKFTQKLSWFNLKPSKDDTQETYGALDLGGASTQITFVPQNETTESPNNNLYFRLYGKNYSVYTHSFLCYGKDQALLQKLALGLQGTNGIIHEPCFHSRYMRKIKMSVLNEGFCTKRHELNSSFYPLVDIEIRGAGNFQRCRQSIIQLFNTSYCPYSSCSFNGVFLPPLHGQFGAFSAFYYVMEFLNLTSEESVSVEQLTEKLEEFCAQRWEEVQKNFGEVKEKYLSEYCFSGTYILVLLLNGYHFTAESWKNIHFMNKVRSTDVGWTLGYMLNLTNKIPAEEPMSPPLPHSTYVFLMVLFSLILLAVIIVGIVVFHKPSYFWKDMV
Experimental: Isolation of particulate fractions. Experiments were carried out with a particulate fraction obtained from bovine spleen according to the method of Sévigny et al. (37). Briefly, bovine spleens were cut in small pieces and homogenized (15-20%) with a Polytron in Tris-saline buffer supplemented with SBTI and PMSF as protease inhibitors. After filtration with cheesecloth and centrifugation at 600 g the supernatant is centrifuged at 22,000 g for 90 min, and the resulting pellet is suspended in bicarbonate buffer and loaded on a sucrose cushion (40%) and centrifuged for two hours at 100,000 g. The fraction floating on the cushion is harvested in five volumes of bicarbonate buffer. The pellet is suspended in Tris buffer/glycerol 7.5% and kept at −20° C.
(§2) NTPDase assays. Enzyme activity was routinely measured by the release of inorganic phosphorus with the malachite green colorimetric assay (61). Resistance to hydrolysis was measured at 37° C. in 1 ml of the following incubation medium: 8 mM CaCl2, 5 mM tetramisole, 50 mM Tris base, 50 mM imidazole, buffered at pH 7.6, and 100 μM of either ATP or its analogs. […] In both cases the reaction was started by the addition of 1.9 μg of the enzyme preparation and stopped after 7 min with 250 μL of the malachite green reagent. […] Reactions were performed in the same incubation buffer, as previously described and were started by the addition of non-saturating ATP concentrations. Protein concentration was determined with the Bradford microplate assay using bovine serum albumin as a standard of reference (62).
To reduce potential artifacts resulting from the solubilisation of NTPDase by detergents, a particulate fraction (prepared as described above) was used. […] Also, possible alkaline phosphatase activity was inhibited by tetramisole added to the assays.

[6] = target: T1, NTPDase; experiment: NTPDase inhibition, ATP as substrate (Dixon plots); assay type: biochemical, bovine
Experimental: as §2, with “Isolation of particulate fractions. […] Briefly, bovine spleens were cut in small pieces and homogenized (15-20%) with a Polytron in Tris-saline buffer supplemented with SBTI and PMSF as protease inhibitors. After filtration with cheesecloth and centrifugation at 600 g the supernatant is centrifuged at 22,000 g for 90 min, and the resulting pellet is suspended in bicarbonate buffer and loaded on a sucrose cushion (40%) and centrifuged for two hours at 100,000 g. The fraction floating on the cushion is harvested in five volumes of bicarbonate buffer. […] NTPDase” for “NTPDase”, “(62). […]” for “(62).”

CCCCSc1nc2c(N)ncnc2n1C1OC(COP(=O)(O)OP(=O)(O)OP(=O)(O)O)C(O)C1O (centres unmarked) [6e, 8-BuS-ATP]
effect on [Ca2+]i level [1]: no effect
agonism at P2Y1 receptor [2]: poor agonist
effect on vasodilatory response to ATP (P2Y-R) [3]: does not interact
effect on vasodilatory response to ATP (P2Y-R) ([3]; listed as 8-BuS-ATP): unmodified; also recorded: No significant difference
P2X-R effect: variation of perfusion pressure [4]: does not interact
P2X-R effect: variation of perfusion pressure ([4]; listed as 8-BuS-ATP): not able to initiate any P2X-R effect; also recorded: No variations of perfusion pressure

CCSc1nc2c(N)ncnc2n1[C@@H]1O[C@H](COP(=O)(O)OP(=O)(O)OP(=O)(O)O)[C@@H](O)[C@H]1O [6c, 8-(Thioethyl)-adenosine 5′-triphosphate]
hydrolysis by NTPDase / resistance to hydrolysis [5]: a level of hydrolysis

Nc1ncnc2c1nc(Br)n2[C@@H]1O[C@H](COP(=O)(O)OP(=O)(O)OP(=O)(O)O)[C@@H](O)[C@H]1O [8-Br-ATP, reference compound]
hydrolysis by NTPDase / resistance to hydrolysis [5]: a level of hydrolysis

CCCCOc1nc2c(N)ncnc2n1[C@@H]1O[C@H](COP(=O)(O)OP(=O)(O)OP(=O)(O)O)[C@@H](O)[C@H]1O [compound 8, 8-BuO-ATP]
hydrolysis by NTPDase / resistance to hydrolysis [5]: a level of hydrolysis

[Star^9,Met(O2)^11]SP [NK-1, reference compound]
vascular response (vasodilation) in denuded mesentery ([4]; 100 pmol, vessels precontracted with 200 μM noradrenaline): significant response

CCCCNc1nc2c(N)ncnc2n1[C@@H]1O[C@H](COP(=O)(O)OP(=O)(O)OP(=O)(O)O)[C@@H](O)[C@H]1O [compound 7, 8-BuNH-ATP]
hydrolysis by NTPDase / resistance to hydrolysis [5]: a level of hydrolysis

Nc1ncnc2c1nc(SC1CCCCCC1)n2C1OC(COP(=O)(O)OP(=O)(O)OP(=O)(O)O)C(O)C1O (centres unmarked) [6a, 8-(Thiocycloheptyl)-adenosine 5′-triphosphate]
potency / affinity as NTPDase inhibitor, in words [6]: good inhibitors
type of NTPDase inhibition ([6]; Lineweaver-Burk / Dixon representation): mixed type inhibitors; also recorded: mixed types of inhibition
hydrolysis by NTPDase / resistance to hydrolysis [5]: more resistant to hydrolysis; also recorded: resistant to hydrolysis
